US8673856B2 (Anygen Co., Ltd., priority 2006, dated 2014)

System: Sprague-Dawley male rats
Conditions: rat, in vivo

Row | SMILES | 50% withdrawal threshold, mechanical stimulus
1 | CC[C@H](C)[C@@H]1NC(=O)[C@H](CCCNC(=N)N)NC(=O)[C@H](CO)NC(=O)[C@@H]2CSSC[C@@H]3NC(=O)[C@H](CO)NC(=O)CNC(=O)[C@H]([C@@H](C)O)NC(=O)[C@H](CSSC[C@H](N)C(=O)N[C@@H](CCCCN)C(=O)NCC(=O)N[C@@H]([C@@H](C)O)C(=O)NCC(=O)N[C@@H](CCCCN)C(=O)N[C@@H](CO)C(=O)N2)NC(=O)[C@H](CSSC[C@@H](C(N)=O)NC(=O)[C@H](CCCCN)NC(=O)CNC(=O)[C@H](CO)NC(=O)[C@H](CCCNC(=N)N)NC3=O)NC(=O)[C@H](CC(N)=O)NC(=O)[C@H](Cc2ccc(O)cc2)NC(=O)[C@H](C)NC1=O [FVIA, CKGTGKSCSRIAYNCCTGSCRSGKC-NH2] | increase in 50% withdrawal threshold
2 | CSCC[C@@H]1NC(=O)[C@H](CC(C)C)NC(=O)[C@H](CCCNC(=N)N)NC(=O)[C@H](CO)NC(=O)[C@@H]2CSSC[C@@H]3NC(=O)[C@H](CO)NC(=O)CNC(=O)[C@H]([C@@H](C)O)NC(=O)[C@H](CSSC[C@H](N)C(=O)N[C@@H](CCCCN)C(=O)NCC(=O)N[C@@H](CCCCN)C(=O)NCC(=O)N[C@@H](C)C(=O)N[C@@H](CCCCN)C(=O)N2)NC(=O)[C@H](CSSC[C@@H](C(N)=O)NC(=O)[C@H](CCCCN)NC(=O)CNC(=O)[C@H](CO)NC(=O)[C@H](CCCNC(=N)N)NC3=O)NC(=O)[C@H](CC(=O)O)NC(=O)[C@H](Cc2ccc(O)cc2)NC1=O [MVIIA, CKGKGAKCSRLMYDCCTGSCRSGKC-NH2] | increase in 50% withdrawal threshold
